Source: patent US10329261B1, “Method of preparing 6-chloro-5-nitro-2,4-diaminopyrimidine and its application thereof” (XI'AN TAIKOMED PHARMACEUTICAL TECHNOLOGY CO., LTD., priority 2018, dated 2019)

Tests used:
HL-60 = assay: CCK8 assay, growth inhibition of leukemia cells; type: cell-based; conditions: for inhibition at 1 µM / inhibition at 5 µM / inhibition at 10 µM / inhibition at 50 µM / inhibition at 100 µM: Homo sapiens, 48 hours, read-out: Inhibition Rate % (X ± SD, n = 5); for inhibition at 1 µM: HL-60, 1 μmol/L; for inhibition at 5 µM: HL-60, 5 μmol/L; for inhibition at 10 µM: HL-60, 10 μmol/L; for inhibition at 50 µM: HL-60, 50 μmol/L; for inhibition at 100 µM: HL-60, 100 μmol/L
Description: (§1) Measuring the Inhibitory Effect of 6-Chloro-5-Nitro-2,4-Diaminopyrimidine on the Growth of Six Leukemia Cells by CCK8 Assay
(§2) Cell lines: HL-60 (acute myeloid leukemia), Jurkat (acute T cell leukemia), K562 (chronic myeloid leukemia), EOL-1 (human eosinophil leukemia), Dami (human megakaryocytic leukemia), 6T-CEM (human T cell leukemia) were provided by the Affiliated Hospital of Guangdong Medical College. The cells were cultured in RPMI1640 medium containing 10% fetal bovine serum, penicillin 100 U/mL, streptomycin 100 mg/L, at 37° C., 5% CO2, and saturated humidity, in incubator, and logarithmic growth phase cells were used for experiments.
(§3) Test compounds: Imatinib solution and 6-chloro-5-nitro-2,4-diaminopyrimidine solution were prepared with physiological saline, and the final concentrations of the compounds were 1, 5, 10, 50, and 100 μmol/L.
(§4) Test method: Take the logarithmic growth leukemia cell lines, count, and inoculate at a density of 1×10^5/mL in a 96-well culture plate, 100 μL per well. After 24 hours of culture, 100 μL medium containing the different concentrations (double the target/final concentration) of compounds was added to each well. The medium containing the highest concentration of DMSO was used as a control. After 48 hours, 20 μL of CCK8 coloring solution was added to each well, the color was developed at 37° C., and OD450 was measured with a microplate reader until the absorbance was about 1.5. The inhibition rate was calculated by the following formula. Inhibition Rate (%)=(1−absorbance of the test compound/absorbance of the control)×100%

Jurkat = assay: CCK8 assay, growth inhibition of leukemia cells; type: cell-based; conditions: for inhibition at 1 µM / inhibition at 5 µM / inhibition at 10 µM / inhibition at 50 µM / inhibition at 100 µM: Homo sapiens, 48 hours, read-out: Inhibition Rate % (X ± SD, n = 5); for inhibition at 1 µM: 1 μmol/L; for inhibition at 5 µM: 5 μmol/L; for inhibition at 10 µM: 10 μmol/L; for inhibition at 50 µM: 50 μmol/L; for inhibition at 100 µM: 100 μmol/L
Description: as §1, §2, §3, §4

K-562 = assay: CCK8 assay, growth inhibition of leukemia cells; type: cell-based; conditions: for inhibition at 1 µM / inhibition at 5 µM / inhibition at 10 µM / inhibition at 50 µM / inhibition at 100 µM: Homo sapiens, K562, 48 hours, read-out: Inhibition Rate % (X ± SD, n = 5); for inhibition at 1 µM: K-562, 1 μmol/L; for inhibition at 5 µM: K-562, 5 μmol/L; for inhibition at 50 µM: K-562, 50 μmol/L; for inhibition at 100 µM: K-562, 100 μmol/L
Description: as §1, §2, §3, §4

6T-CEM = assay: CCK8 assay, growth inhibition of leukemia cells; type: cell-based, human; conditions: for inhibition at 1 µM / inhibition at 5 µM / inhibition at 10 µM / inhibition at 50 µM / inhibition at 100 µM: Homo sapiens, 48 hours, read-out: Inhibition Rate % (X ± SD, n = 5); for inhibition at 1 µM: 1 μmol/L; for inhibition at 5 µM: 5 μmol/L; for inhibition at 10 µM: 10 μmol/L; for inhibition at 50 µM: 50 μmol/L; for inhibition at 100 µM: 100 μmol/L
Description: as §1, §2, §3, §4

Dami = assay: CCK8 assay, growth inhibition of leukemia cells; type: cell-based, human; conditions: for inhibition at 1 µM / inhibition at 5 µM / inhibition at 10 µM / inhibition at 50 µM / inhibition at 100 µM: Homo sapiens, 48 hours, read-out: Inhibition Rate % (X ± SD, n = 5); for inhibition at 1 µM: 1 μmol/L; for inhibition at 5 µM: 5 μmol/L; for inhibition at 10 µM: 10 μmol/L; for inhibition at 50 µM: 50 μmol/L; for inhibition at 100 µM: 100 μmol/L
Description: as §1, §2, §3, §4

EOL-1 = assay: CCK8 assay, growth inhibition of leukemia cells; type: cell-based, human; conditions: for inhibition at 1 µM / inhibition at 5 µM / inhibition at 10 µM / inhibition at 50 µM / inhibition at 100 µM: Homo sapiens, EOL1, 48 hours, read-out: Inhibition Rate % (X ± SD, n = 5); for inhibition at 1 µM: EOL-1, 1 μmol/L; for inhibition at 5 µM: EOL-1, 5 μmol/L; for inhibition at 10 µM: EOL-1, 10 μmol/L; for inhibition at 50 µM: EOL-1, 50 μmol/L; for inhibition at 100 µM: EOL-1, 100 μmol/L
Description: as §1, §2, §3, §4

K-562 leukemia = assay: Inhibition test of nude mice inoculated with K-562 cell line; type: in vivo; conditions: for Tumor weight (X ± SE) / Inhibition (%): ip × 7, nude mice with K-562; for Tumor weight (X ± SE): in g (unit assumed); for Inhibition (%): tumor inhibition rate
Description: Inhibition Test of Nude Mice Inoculated with K-562 Cell Line
Test compounds: 6-chloro-5-nitro-2,4-diaminopyrimidine and imatinib dissolved in normal saline.
Administration route: intraperitoneal injection (ip).
Test animals: nude mice, SPF level.
Cell line: chronic myeloid leukemia cell line K-562, from the Affiliated Hospital of Guangdong Medical College
Test method: 50 nude mice weighing 18-22 grams, both male and female. The K-562 cell was diluted to a final concentration of 10 million cells/mL for leukemia cells; each mouse was inoculated subcutaneously with 0.2 mL (containing […] leukemia cells). On the next day, the mice were randomly divided to 5 groups: 6-chloro-5-nitro-2,4-diaminopyrimidine group (dose: 3 mg/kg), 6-chloro-5-nitro-2,4-diaminopyrimidine group (dose: 8 mg/kg), 6-chloro-5-nitro-2,4-diaminopyrimidine group (dose: 20 mg/kg), positive control group (imatinib, 8 mg/kg) and blank control group. The 6-chloro-5-nitro-2,4-diaminopyrimidine groups and the positive control group were administered once a day for 7 consecutive days; the blank control group was given a corresponding volume of NS liquid. No test compounds were given for one day after the last dose. Animals were sacrificed by cervical dislocation, and weighed and dissected to weigh. The tumor weights were calculated for each group. The leukemia inhibition rate was calculated according to the following formula. Tumor inhibition rate=(mean tumor weight in the control group−average tumor weight in the administration group)/mean tumor weight in the control group×100%,

Question: Which results are given for `Nc1nc(N)c([N+](=O)[O-])c(Cl)n1` [6-chloro-5-nitro-2,4-diaminopyrimidine]?
Answer: inhibitory effect on the cell line (in words) (HL-60; HL-60): does not show any inhibition; inhibition at 1 µM (HL-60): 3.87%; inhibition at 5 µM (HL-60): -1.12%; inhibition at 10 µM (HL-60): -7.66%; inhibition at 50 µM (HL-60): -9.26%; inhibition at 100 µM (HL-60): -14.2%; inhibitory effect on the cell line (in words) (Jurkat): does not show any inhibition; inhibition at 1 µM (Jurkat): -13.5%; inhibition at 5 µM (Jurkat): -15.9%; inhibition at 10 µM (Jurkat): -27%; inhibition at 50 µM (Jurkat): -28.1%; inhibition at 100 µM (Jurkat): -30%; inhibition at 1 µM (K-562): 45.5%; inhibition at 5 µM (K-562): 61.5%; inhibition at 10 µM (K-562; K-562, 10 μmol/L): 76.8%; inhibition at 50 µM (K-562): 77.3%; inhibition at 100 µM (K-562): 78.4%; inhibition rate compared with imatinib (K-562; K-562, 10 μmol/L): exceeds that of imatinib; inhibitory effect on the cell line (in words) (K-562; K-562 cell line): good inhibitory effect; selectivity among the six leukemia cell lines (in words) (K-562; K-562 versus HL-60, Jurkat, EOL-1, Dami, 6T-CEM): selectively inhibits chronic myelogenous leukemia cell line; inhibitory effect on the cell line (in words) (6T-CEM): does not show any inhibition; inhibition at 1 µM (6T-CEM): -17.5%; inhibition at 5 µM (6T-CEM): -21.1%; inhibition at 10 µM (6T-CEM): -25.5%; inhibition at 50 µM (6T-CEM): -28.1%; inhibition at 100 µM (6T-CEM): -31%; inhibitory effect on the cell line (in words) (Dami): does not show any inhibition; inhibition at 1 µM (Dami): -14.2%; inhibition at 5 µM (Dami): -17.7%; inhibition at 10 µM (Dami): -22%; inhibition at 50 µM (Dami): -26%; inhibition at 100 µM (Dami): -30.3%; inhibitory effect on the cell line (in words) (EOL-1; EOL-1): does not show any inhibition; inhibition at 1 µM (EOL-1): -22.4%; inhibition at 5 µM (EOL-1): -23%; inhibition at 10 µM (EOL-1): -23.3%; inhibition at 50 µM (EOL-1): -19.3%; inhibition at 100 µM (EOL-1): -18.9%; Tumor weight (X ± SE) (K-562 leukemia; 3 mg/kg): 1.84; Tumor weight (X ± SE) (K-562 leukemia; 8 mg/kg): 0.87; Tumor weight (X ± SE) (K-562 leukemia; 20 mg/kg): 0.74; Inhibition (%) (K-562 leukemia; 3 mg/kg): 48.41%; Inhibition (%) (K-562 leukemia; 8 mg/kg): 75.18%; Inhibition (%) (K-562 leukemia; 20 mg/kg): 79.34%

Question: What does the source list for `Cc1ccc(NC(=O)c2ccc(CN3CCN(C)CC3)cc2)cc1Nc1nccc(-c2cccnc2)n1` [Imatinib, reference compound]?
Answer: inhibition at 1 µM (HL-60): 62.2%; inhibition at 5 µM (HL-60): 69.5%; inhibition at 10 µM (HL-60): 64.6%; inhibition at 50 µM (HL-60): 83.1%; inhibition at 100 µM (HL-60): 84.5%; inhibition at 1 µM (Jurkat): 66.7%; inhibition at 5 µM (Jurkat): 71%; inhibition at 10 µM (Jurkat): 73.3%; inhibition at 50 µM (Jurkat): 85.7%; inhibition at 100 µM (Jurkat): 90.9%; inhibition at 1 µM (K-562): 66.4%; inhibition at 5 µM (K-562): 67.9%; inhibition at 10 µM (K-562; K-562, 10 μmol/L): 71.6%; inhibition at 50 µM (K-562): 83.1%; inhibition at 100 µM (K-562): 88.3%; inhibition at 1 µM (6T-CEM): 68.2%; inhibition at 5 µM (6T-CEM): 70.8%; inhibition at 10 µM (6T-CEM): 74.9%; inhibition at 50 µM (6T-CEM): 86.5%; inhibition at 100 µM (6T-CEM): 91.3%; inhibition at 1 µM (Dami): 61.3%; inhibition at 5 µM (Dami): 65.4%; inhibition at 10 µM (Dami): 69.3%; inhibition at 50 µM (Dami): 82.1%; inhibition at 100 µM (Dami): 89.4%; inhibition at 1 µM (EOL-1): 63.6%; inhibition at 5 µM (EOL-1): 66.2%; inhibition at 10 µM (EOL-1): 68.4%; inhibition at 50 µM (EOL-1): 79.1%; inhibition at 100 µM (EOL-1): 86.4%; Number of mice before and after (K-562 leukemia; 8 mg/kg, ip × 7): 10/10; Tumor weight (X ± SE) (K-562 leukemia; 8 mg/kg): 0.93; Mouse weight after (K-562 leukemia; 8 mg/kg, ip × 7, weight before 19.5): 20.4; Inhibition (%) (K-562 leukemia; 8 mg/kg): 74.02%
